How the values were obtained:
[1] = target: GDP-bound NRAS wild-type protein (Homo sapiens, UniProt P01111); experiment: Binding to NRAS by surface plasmon resonance (SPR), Single Cycle Kinetics; conditions: SPR; for NRAS/KRAS (ratio of KD value with respect to NRAS to KD value with respect to KRAS): GDP-bound NRAS wild-type vs GDP-bound KRAS wild-type; for NRAS/KRAS (ratio of KD value for GDP-bound NRAS wild-type protein to KD value for KRAS): KD ratio class
[2] = target: GDP-bound HRAS wild-type protein (Homo sapiens, UniProt P01112); experiment: Binding to HRAS by surface plasmon resonance (SPR), Single Cycle Kinetics; conditions: SPR; for HRAS/KRAS (ratio of KD value with respect to HRAS to KD value with respect to KRAS): GDP-bound HRAS wild-type vs GDP-bound KRAS wild-type; for HRAS/KRAS (ratio of KD value for GDP-bound HRAS wild-type protein to KD value for KRAS): KD ratio class
Sequence of GDP-bound HRAS wild-type protein (P01112 whole entry): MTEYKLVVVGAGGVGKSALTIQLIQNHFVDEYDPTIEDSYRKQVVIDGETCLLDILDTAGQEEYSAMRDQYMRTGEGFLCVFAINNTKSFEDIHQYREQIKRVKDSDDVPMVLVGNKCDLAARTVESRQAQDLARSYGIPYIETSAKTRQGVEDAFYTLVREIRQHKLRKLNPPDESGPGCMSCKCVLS

Sequence of GDP-bound NRAS wild-type protein (P01111 whole entry): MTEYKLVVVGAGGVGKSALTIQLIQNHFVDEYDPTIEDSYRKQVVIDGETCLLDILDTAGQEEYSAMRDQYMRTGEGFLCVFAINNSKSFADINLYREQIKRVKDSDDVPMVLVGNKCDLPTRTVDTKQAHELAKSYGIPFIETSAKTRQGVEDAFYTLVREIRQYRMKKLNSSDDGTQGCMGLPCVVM

Compound	NRAS/KRAS (ratio of KD value with respect to NRAS to KD value with respect to KRAS) [1]	HRAS/KRAS (ratio of KD value with respect to HRAS to KD value with respect to KRAS) [2]	NRAS/KRAS (ratio of KD value for GDP-bound NRAS wild-type protein to KD value for KRAS) [1]	HRAS/KRAS (ratio of KD value for GDP-bound HRAS wild-type protein to KD value for KRAS) [2]
CCO[C@@H]1C[C@H]2C(=O)NC3(CCC3)C(=O)N(C)[C@@H](C3CCCC3)C(=O)N(C)[C@H](C(=O)N(C)C)CC(=O)N(C)[C@@H](Cc3ccccc3)C(=O)N[C@@H]([C@@H](C)CC)C(=O)N(C)CC(=O)N(C)[C@H]3CCCCCN(C3=O)[C@@H](Cc3ccc(F)cc3)C(=O)N(C)CC(=O)N[C@@H](CCc3cc(F)c(C(F)(F)F)c(F)c3)C(=O)N2C1 [PP1195]	B (a compound having 3 or more and less than 10 is denoted as B)	B (a compound having 3 or more and less than 10 is denoted as B)	–	–
CCO[C@@H]1C[C@H]2C(=O)NC3(CCC3)C(=O)N(C)[C@@H](C3CCCC3)C(=O)N(C)[C@H](C(=O)N(C)C)CC(=O)N(C)[C@@H](Cc3cccnc3)C(=O)N[C@@H]([C@@H](C)CC)C(=O)N(C)CC(=O)N(C)[C@H]3CCCCCN(C3=O)[C@@H](Cc3ccc(F)cc3)C(=O)N(C)CC(=O)N[C@@H](CCc3cc(F)c(C(F)(F)F)c(F)c3)C(=O)N2C1 [PP1196]	B (a compound having 3 or more and less than 10 is denoted as B)	B (a compound having 3 or more and less than 10 is denoted as B)	–	–
CCO[C@@H]1C[C@H]2C(=O)NC3(CCC3)C(=O)N(C)[C@@H](C3CCCC3)C(=O)N(C)[C@H](C(=O)N(C)C)CC(=O)N(C)[C@@H](Cc3cccs3)C(=O)N[C@@H]([C@@H](C)CC)C(=O)N(C)CC(=O)N(C)[C@H]3CCCCCN(C3=O)[C@@H](Cc3ccc(F)cc3)C(=O)N(C)CC(=O)N[C@@H](CCc3cc(F)c(C(F)(F)F)c(F)c3)C(=O)N2C1 [PP1197]	B (a compound having 3 or more and less than 10 is denoted as B)	B (a compound having 3 or more and less than 10 is denoted as B)	–	–
CCO[C@@H]1C[C@H]2C(=O)NC3(CCC3)C(=O)N(C)[C@@H](C(CC)CC)C(=O)N(C)[C@H](C(=O)N(C)C)CC(=O)N(C)[C@@H](C)C(=O)N[C@@H]([C@@H](C)CC)C(=O)N(C)CC(=O)N(C)[C@H]3C/C=C\CCN(C3=O)[C@@H](Cc3ccc(C(F)(F)F)cc3)C(=O)N(C)CC(=O)N[C@@H](CCc3cc(F)c(C(F)(F)F)c(F)c3)C(=O)N2C1 [PP1199]	A (a compound having 10 or more and less than 20 is denoted as A)	A (a compound having 10 or more and less than 20 is denoted as A)	–	–
CCO[C@@H]1C[C@H]2C(=O)NC3(CCC3)C(=O)N(C)[C@@H](C(CC)CC)C(=O)N(C)[C@H](C(=O)N(C)C)CC(=O)N(C)[C@@H](CC)C(=O)N[C@@H]([C@@H](C)CC)C(=O)N(C)CC(=O)N(C)[C@H]3C/C=C\CCN(C3=O)[C@@H](Cc3ccc(C(F)(F)F)cc3)C(=O)N(C)CC(=O)N[C@@H](CCc3cc(F)c(C(F)(F)F)c(F)c3)C(=O)N2C1 [PP1200]	AA (a compound having 20 or more is denoted as AA)	A (a compound having 10 or more and less than 20 is denoted as A)	–	–
CCO[C@@H]1C[C@H]2C(=O)NC3(CCC3)C(=O)N(C)[C@@H](C(CC)CC)C(=O)N(C)[C@H](C(=O)N(C)C)CC(=O)N(C)[C@@H](CC(C)C)C(=O)N[C@@H]([C@@H](C)CC)C(=O)N(C)CC(=O)N(C)[C@H]3C/C=C\CCN(C3=O)[C@@H](Cc3ccc(C(F)(F)F)cc3)C(=O)N(C)CC(=O)N[C@@H](CCc3cc(F)c(C(F)(F)F)c(F)c3)C(=O)N2C1 [PP1201]	AA (a compound having 20 or more is denoted as AA)	A (a compound having 10 or more and less than 20 is denoted as A)	–	–
CCO[C@@H]1C[C@H]2C(=O)NC3(CCC3)C(=O)N(C)[C@@H](C3CCCC3)C(=O)N(C)[C@H](C(=O)N(C)CC)CC(=O)N(C)[C@@H](CC(C)C)C(=O)N[C@@H]([C@@H](C)CC)C(=O)N(C)CC(=O)N(C)[C@H]3C/C=C\CCN(C3=O)[C@@H](Cc3ccc(C(F)(F)F)cc3)C(=O)N(C)CC(=O)N[C@@H](CCc3cc(F)c(C(F)(F)F)c(F)c3)C(=O)N2C1 [PP1300]	–	–	A (a compound having 10 or more and less than 20 is denoted as A)	A (a compound having 10 or more and less than 20 is denoted as A)
CCO[C@@H]1C[C@H]2C(=O)NC3(CCC3)C(=O)N(C)[C@@H](C3CCCC3)C(=O)N(C)[C@H](C(=O)N(C)CC)CC(=O)N(C)[C@@H](CC3CC3)C(=O)N[C@@H]([C@@H](C)CC)C(=O)N(C)CC(=O)N(C)[C@H]3C/C=C\CCN(C3=O)[C@@H](Cc3ccc(C(F)(F)F)cc3)C(=O)N(C)CC(=O)N[C@@H](CCc3cc(F)c(C(F)(F)F)c(F)c3)C(=O)N2C1 [PP1301]	–	–	A (a compound having 10 or more and less than 20 is denoted as A)	A (a compound having 10 or more and less than 20 is denoted as A)
CCO[C@@H]1C[C@H]2C(=O)NC3(CCC3)C(=O)N(C)[C@@H](C3CCCC3)C(=O)N(C)[C@H](C(=O)N(C)CC)CC(=O)N(C)[C@@H](C)C(=O)N[C@@H]([C@@H](C)CC)C(=O)N(C)CC(=O)N(C)[C@H]3C/C=C\CCN(C3=O)[C@@H](Cc3ccc(C(F)(F)F)cc3)C(=O)N(C)CC(=O)N[C@@H](CCc3cc(F)c(C(F)(F)F)c(F)c3)C(=O)N2C1 [PP1302]	–	–	A (a compound having 10 or more and less than 20 is denoted as A)	A (a compound having 10 or more and less than 20 is denoted as A)
CCO[C@@H]1C[C@H]2C(=O)NC3(CCC3)C(=O)N(C)[C@@H](C3CCCC3)C(=O)N(C)[C@H](C(=O)N(C)CC)CC(=O)N(C)[C@@H](CC(F)F)C(=O)N[C@@H]([C@@H](C)CC)C(=O)N(C)CC(=O)N(C)[C@H]3C/C=C\CCN(C3=O)[C@@H](Cc3ccc(C(F)(F)F)cc3)C(=O)N(C)CC(=O)N[C@@H](CCc3cc(F)c(C(F)(F)F)c(F)c3)C(=O)N2C1 [PP1303]	–	–	AA (a compound having 20 or more is denoted as AA)	A (a compound having 10 or more and less than 20 is denoted as A)
CCC[C@H]1C(=O)N[C@@H]([C@@H](C)CC)C(=O)N(C)CC(=O)N(C)[C@H]2C/C=C\CCN(C2=O)[C@@H](Cc2ccc(C(F)(F)F)cc2)C(=O)N(C)CC(=O)N[C@@H](CCc2cc(F)c(C(F)(F)F)c(F)c2)C(=O)N2C[C@H](OCC)C[C@H]2C(=O)NC2(CCC2)C(=O)N(C)[C@@H](C2CCCC2)C(=O)N(C)[C@H](C(=O)N(C)CC)CC(=O)N1C [PP1304]	–	–	A (a compound having 10 or more and less than 20 is denoted as A)	A (a compound having 10 or more and less than 20 is denoted as A)
CCO[C@@H]1C[C@H]2C(=O)NC3(CCC3)C(=O)N(C)[C@@H](C3CCCC3)C(=O)N(C)[C@H](C(=O)N(CC)CC)CC(=O)N(C)[C@@H](CC)C(=O)N[C@@H]([C@@H](C)CC)C(=O)N(C)CC(=O)N(C)[C@H]3C/C=C\CCN(C3=O)[C@@H](Cc3ccc(C(F)(F)F)cc3)C(=O)N(C)CC(=O)N[C@@H](CCc3cc(F)c(C(F)(F)F)c(F)c3)C(=O)N2C1 [PP1305]	–	–	AA (a compound having 20 or more is denoted as AA)	A (a compound having 10 or more and less than 20 is denoted as A)
CCO[C@@H]1C[C@H]2C(=O)NC3(CCC3)C(=O)N(C)[C@@H](C3CCCC3)C(=O)N(C)[C@H](C(=O)N(CC)CC)CC(=O)N(C)[C@@H](CC(C)C)C(=O)N[C@@H]([C@@H](C)CC)C(=O)N(C)CC(=O)N(C)[C@H]3C/C=C\CCN(C3=O)[C@@H](Cc3ccc(C(F)(F)F)cc3)C(=O)N(C)CC(=O)N[C@@H](CCc3cc(F)c(C(F)(F)F)c(F)c3)C(=O)N2C1 [PP1306]	–	–	AA (a compound having 20 or more is denoted as AA)	A (a compound having 10 or more and less than 20 is denoted as A)
CCO[C@@H]1C[C@H]2C(=O)NC3(CCC3)C(=O)N(C)[C@@H](C3CCCC3)C(=O)N(C)[C@H](C(=O)N(CC)CC)CC(=O)N(C)[C@@H](C)C(=O)N[C@@H]([C@@H](C)CC)C(=O)N(C)CC(=O)N(C)[C@H]3C/C=C\CCN(C3=O)[C@@H](Cc3ccc(C(F)(F)F)cc3)C(=O)N(C)CC(=O)N[C@@H](CCc3cc(F)c(C(F)(F)F)c(F)c3)C(=O)N2C1 [PP1308]	–	–	A (a compound having 10 or more and less than 20 is denoted as A)	A (a compound having 10 or more and less than 20 is denoted as A)
CCO[C@@H]1C[C@H]2C(=O)NC3(CCC3)C(=O)N(C)[C@@H](C3CCCC3)C(=O)N(C)[C@H](C(=O)N(CC)CC)CC(=O)N(C)[C@@H](CC(F)F)C(=O)N[C@@H]([C@@H](C)CC)C(=O)N(C)CC(=O)N(C)[C@H]3C/C=C\CCN(C3=O)[C@@H](Cc3ccc(C(F)(F)F)cc3)C(=O)N(C)CC(=O)N[C@@H](CCc3cc(F)c(C(F)(F)F)c(F)c3)C(=O)N2C1 [PP1309]	–	–	A (a compound having 10 or more and less than 20 is denoted as A)	A (a compound having 10 or more and less than 20 is denoted as A)
CCC[C@H]1C(=O)N[C@@H]([C@@H](C)CC)C(=O)N(C)CC(=O)N(C)[C@H]2C/C=C\CCN(C2=O)[C@@H](Cc2ccc(C(F)(F)F)cc2)C(=O)N(C)CC(=O)N[C@@H](CCc2cc(F)c(C(F)(F)F)c(F)c2)C(=O)N2C[C@H](OCC)C[C@H]2C(=O)NC2(CCC2)C(=O)N(C)[C@@H](C2CCCC2)C(=O)N(C)[C@H](C(=O)N(CC)CC)CC(=O)N1C [PP1310]	–	–	AA (a compound having 20 or more is denoted as AA)	A (a compound having 10 or more and less than 20 is denoted as A)
